Test results taken from patent publication US20230144845A1 (The Regents of the University of California, priority 2016, published 2023).
“Also recorded” adds a separate entry of the source.

Tests used:
Assay type in all cases: in vivo
C. elegans = test: Lifespan of adult worms (C. elegans); conditions: P<0.0001 (log-rank test) vs vehicle
6-week old C57/B6 mice [1] = test: Topical treatment of shaved dorsal skin of young mice: pigmentation and hair growth; conditions: 16 mM in Transdermal Gel, topical every other day, vs control
Procedure: Mice were topically (unless indicated otherwise) treated every other day with the indicated amount and photos were taken every week. Mice were monitored for the appearance of skin pigmentation, signaling the initiation of anagen. No hair growth (and no pigmentation) was assigned the arbitrary value of 0. Skin darkening was given a value from 0 to 100%, with the higher number indicating darker skin and visible hair growth.
Compounds were dissolved in Transdermal Gel at 16 mM and applied on mice dorsal skin every other day. To show the pigmentation progression, the appearance of skin pigmentation, signaling the initiation of anagen, was assigned an arbitrary value based on skin darkening. No hair growth (and no pigmentation) was assigned a value of 0 and darker skin/visible hair growth was assigned with higher numbers. Photos were taken weekly to document the pigmentation/hair changes.
Dorsal hair was shaved by trimmer at Week 7 and α-KB acid was dissolved in Transdermal Gel at 16 mM and applied on mice dorsal skin every other day.

6-week old C57/B6 mice [2] = test: Oral α-KG in drinking water in young mice: hair growth; conditions: 16 mM in drinking water, 10 weeks, vs negative controls
Procedure: (§1) Additionally, α-KG was administrated in drinking water to 6-week old C57/B6 mice for 10 weeks. α-KG was dissolved at 16 mM and water was changed every other day to ensure the integrity of the compound. Oral administration of α-KB was tested in 101-week old C57/B6 mice and lasted for 30 weeks. The concentration of α-KB was 8 mM and water was changed weekly. Pigmentation/hair changes were also monitored by assigning arbitrary values and photos.

[3] = tested on: 101-week old C57BL/6J mice; test: Oral α-KB in drinking water in aged mice: survival, aging traits, hair
Procedure: as §1
Based on the lifespan extending effects of α-KB in C. elegans (FIG. 2), the anti-aging properties in mice were examined. Aged 101-week old C57BL/6J mice were treated with 8 mM α-KB acid dissolved in drinking water for up to 30 weeks.

SMILES: CC[C@H](O)C(=O)O [2-HB, 2-hydroxybutyrate]
- mean lifespan (days of adulthood) (C. elegans): 19.8 days of adulthood
- hair growth (6-week old C57/B6 mice [1]): had hair growing back faster; also recorded: accelerated pigmentation and hair growth on Day 14
- skin pigmentation (initiation of anagen) (6-week old C57/B6 mice [1]): showed pigmentation earlier; also recorded: pigmentation improved; also recorded: accelerated pigmentation

SMILES: O=C(O)CCC(=O)C(=O)O [α-KG, alpha-ketoglutarate]
- hair growth after oral administration (6-week old C57/B6 mice [2]): confirmed its effects for hair growth; also recorded: significantly induces hair growth
- mean lifespan (days of adulthood) (C. elegans): 26.1 days of adulthood

SMILES: CCC(=O)C(=O)O [α-KB, alpha-ketobutyrate]
- aging traits (such as cataracts) ([3]; aged mice, 8 mM in drinking water): prevented aging traits in aged mice
- age-related hair loss / hair pigmentation and density on dorsal skin ([3]; aged mice, not shaved, 8 mM in drinking water, vs control): exhibited black and thick hair; also recorded: delays or reduces age-related hair loss
- lifespan / survival of old male mice ([3]; old male C57BL/6J mice, 8 mM in drinking water from 101 weeks for up to 30 weeks, P=0.0476 (Fisher's exact test)): significantly increased survival to beyond 131 weeks of age in male animals; also recorded: increases the lifespan of old male C57BL/6J mice
- mean lifespan (days of adulthood) (C. elegans): 22.4 days of adulthood
- hair growth (6-week old C57/B6 mice [1]): hair growth was accelerated; also recorded: stimulates hair growth by Day 14
- skin pigmentation (initiation of anagen) (6-week old C57/B6 mice [1]): started to show pigmentation patches after one week; also recorded: improved pigmentation
